One assay relates to TIF-IA. Nature of the assay: Two-dimensional tryptic phosphopeptide mapping of TIF-IA labeled in vivo in HEK293T cells. It is filed as cell-based, human. The settings on record: serum-stimulated cells, 40 μM PD98059. The protocol:
HEK293T cells were transfected with pcDNA3.1-FLAG-TIF-IA, starved for 12 hr and labeled for 4 hr with [^32P]orthophosphate. 30 min before harvesting, 10% dialyzed FCS was added and cells were incubated in the absence (left panel) or presence of 40 μM PD98059 (right panel). Immunopurified TIF-IA was subjected to two-dimensional phosphopeptide mapping.
(B) Tryptic peptide maps of TIF-IA phosphorylated in vivo. FLAG-tagged wild-type TIF-IA, TIF-IAS633A and TIF-IAS649A were expressed in HEK293T cells and labeled with [^32P]orthophosphate for 4 hr. TIF-IA was purified by immunoprecipitation and digested with trypsin. Phosphopeptides were separated on cellulose thin-layer plates and visualized by autoradiography. The sequence of the C-terminus of human TIF-IA (H.s.) and an alignment with the corresponding sequences from mouse (M.m.), Drosophila melanogaster (D.m.) and Saccharomyces pombe (S.p.) is shown above.
(A) Two-dimensional tryptic phosphopeptide maps of TIF-IA. HEK293T cells were transfected with FLAG-tagged TIF-IA and labeled for 2 hr with [^32P]orthophosphate in the absence (left) or presence (right) of 20 nM rapamycin. TIF-IA was immunopurified, digested with trypsin, separated on cellulose thin-layer plates and visualized by autoradiography.
(B) Tryptic phosphopeptide map of TIF-IAS44A phosphorylated in vivo. […]

The next assay concerns TIF-IB/SL1. Nature of the assay: Co-immunoprecipitation of TIF-IB/SL1 with TIF-IA mutants from HEK293T cells. It is filed as binding, human. The protocol: (B) A mutant that mimics phosphorylation of TIF-IA at S199 fails to interact with Pol I and TIF-IB. FLAG-tagged wild-type TIF-IA or the indicated point mutants were overexpressed in HEK293T cells and immunoprecipitated from cell lysates with anti-FLAG antibodies (M2 agarose). Co-precipitated Pol I and TIF-IB/SL1 were visualized on Western blots with anti-RPA116 and anti-TAFI110 antibodies.
Immunoprecipitations were carried out from human cells overexpressing FLAG-tagged TIF-IA. Cells were lysed in IP buffer, cleared by centrifugation at 10,000×g for 30 min, and the supernatants were incubated for 4 hr at 4° C. with anti-FLAG (M2) agarose (Sigma). To analyze the interaction of TIF-IA with TIF-IB/SL1, the immunoprecipitates were washed with IP buffer and TIF-IB/SL1 was visualized on immunoblots with α-TAFI110 antibodies. To monitor the interaction of TIF-IA with Pol I, the immunoprecipitates were washed with IP buffer containing 600 mM NaCl and Pol I was analyzed on Western blots using antibodies against the second largest subunit of Pol I (RPA116) or PAF67 (Seither et al., J. Biol. Chem. 382 (2001), 1163-1170).
Given the importance of mTOR-mediated alterations in the phosphorylation pattern on TIF-IA activity, one could predict that either phosphorylation of S199, dephosphorylation of S44 or both regulate the interaction of TIF-IA with the Pol I transcription apparatus. It was therefore examined whether the S→A or S→D point mutant(s) were capable of interacting with Pol I and/or TIF-IB/SL1. For this, TIF-IA was precipitated from cells overexpressing either FLAG-tagged wild-type TIF-IA or the respective S199 and S44 mutant(s), and co-precipitated Pol I and TIF-IB/SL1 were visualized on Western blots.

Consider `COc1cccc(-c2cc(=O)c3ccccc3o2)c1N` [PD98059], for which, in the assay on TIF-IA, the “labeling of TIF-IA phosphopeptide spots d, f and g” value is “impaired”; the “phosphorylation of TIF-IA phosphopeptide spots b and c” value is recorded as “reduced”.

Consider “TIF-IA: wild-type human transcription initiation factor TIF-IA, accession No. AJ272050”, for which the “interaction with TIF-IB/SL1 (co-precipitated TAFI110)” value in the assay with TIF-IB/SL1 is “interacted with both Pol I and TIF-IB/SL1”.
